≈ marks a conversion by molar mass, not a printed value. Where “and” joins values, the source holds several entries; their conditions need not be identical. Identical values can stand only once. Like-named read-outs stand apart in the source and are kept apart here.
Experiments:
Format in all cases: cell-based
[1] = tested on: Gram positive anaerobic and facultative anaerobic pathogens; experiment: organism not typed
[2] = tested on: Gram negative anaerobic pathogens and facultative anaerobic pathogens; experiment: MIC by agar dilution, Brucella HK agar with 5% laked sheep blood, anaerobic reference strains
[3] = tested on: Pseudomonas aeruginosa; experiment: MIC by agar dilution (NCCLS), 322 nosocomial Gram negative isolates, Athens 1998; details: n = 57 isolates
[4] = tested on: Klebsiella pneumoniae; experiment: as above; details: n = 56 isolates
[5] = tested on: Proteus mirabilis; experiment: as above; details: n = 57 isolates
[6] = tested on: Enterobacter spp.; experiment: as above; details: n = 57 isolates
[7] = tested on: Acinetobacter spp.; experiment: as above; details: n = 38 strains

For C[C@@H](O)[C@H]1C(=O)N2C(C(=O)O)=C(SCCN=CN)C[C@H]12 [Imipenem], the MIC [1] was 0.125 µg/mL and 0.25 µg/mL, the MIC ([1]; Bifidobacterium adolescentis, ATCC15703) was 0.125 µg/mL (≈ 0.418 µM) and the MIC ([1]; Bifidobacterium bifidum, JCM1255) was 0.125 µg/mL (≈ 0.418 µM). It also gave an MIC ([1]; Bifidobacterium breve, ATCC15700) of 1 µg/mL (≈ 3.34 µM), an MIC ([1]; Bifidobacterium longum, ATCC15707) of 0.25 µg/mL (≈ 0.835 µM) and an MIC ([1]; Bifidobacterium pseudolongum, ATCC25526) of 0.25 µg/mL (≈ 0.835 µM). The MIC ([1]; Clostridioides difficile) was 4 µg/mL (≈ 13.4 µM), the MIC ([1]; Clostridium perfringens, ATCC13124) was 0.125 µg/mL (≈ 0.418 µM) and the MIC ([1]; Clostridium septicum, ATCC12464) was no more than 0.03 µg/mL. The MIC ([1]; Cutibacterium acnes, ATCC11828) was 0.125 µg/mL (≈ 0.418 µM), the MIC ([1]; Eggerthella lenta, ATCC25559) was 2 µg/mL (≈ 6.68 µM) and the MIC ([1]; Finegoldia magna, ATCC29328) was 0.25 µg/mL (≈ 0.835 µM). It also gave an MIC ([1]; Gemella morbillorum, ATCC27824) of no more than 0.03 µg/mL, an MIC ([1]; Lacticaseibacillus casei, JCM1134) of 0.5 µg/mL (≈ 1.67 µM) and an MIC ([1]; Lactiplantibacillus plantarum, JCM1149) of 0.06 µg/mL (≈ 0.2 µM). For the same compound, the MIC ([1]; Lactobacillus acidophilus, JCM1132) was 0.125 µg/mL (≈ 0.418 µM), the MIC ([1]; Levilactobacillus brevis, JCM1059) was 0.06 µg/mL (≈ 0.2 µM) and the MIC ([1]; Ligilactobacillus salivarius, JCM1231) was 0.5 µg/mL (≈ 1.67 µM). The MIC ([1]; Limosilactobacillus reuteri, JCM1112) was 0.06 µg/mL (≈ 0.2 µM), the MIC ([1]; Limosilactobacillus reuteri, JCM1173) was no more than 0.03 µg/mL and the MIC ([1]; Paraclostridium sordellii, ATCC9714) was no more than 0.03 µg/mL. For the same compound, the MIC ([1]; Parvimonas micra) was 0.125 µg/mL (≈ 0.418 µM), the MIC ([1]; Peptoniphilus asaccharolyticus) was 0.125 µg/mL (≈ 0.418 µM) and the MIC ([1]; Peptoniphilus indolicus) was no more than 0.03 µg/mL. For the same compound, the MIC ([1]; Peptostreptococcus anaerobius, ATCC27337) was 0.06 µg/mL (≈ 0.2 µM), the MIC ([1]; Schaalia odontolytica) was 0.5 µg/mL (≈ 1.67 µM) and the MIC ([1]; Staphylococcus saccharolyticus, ATCC14953) was no more than 0.03 µg/mL. For the same compound, the MIC ([1]; Streptococcus constellatus, ATCC27823) was 0.25 µg/mL (≈ 0.835 µM), the MIC ([1]; Streptococcus intermedius, ATCC27335) was 0.25 µg/mL (≈ 0.835 µM) and the MIC ([1]; Thomasclavelia ramosa, ATCC25582) was 0.25 µg/mL (≈ 0.835 µM). The MIC ([2]; Bacteroides eggerthii, ATCC27754) was 0.125 µg/mL (≈ 0.418 µM), the MIC ([2]; Bacteroides fragilis, ATCC25285, Bacteroides fragilis ATCC25285, read-out: MIC) was 0.5 µg/mL (≈ 1.67 µM) and the MIC ([2]; Bacteroides fragilis, Bacteroides fragilis GA15562, read-out: MIC) was 0.25 µg/mL (≈ 0.835 µM). It also gave an MIC ([2]; Bacteroides fragilis, Bacteroides fragilis GA-I0558, read-out: MIC) of 1 µg/mL (≈ 3.34 µM), an MIC ([2]; Bacteroides fragilis, Bacteroides fragilis GA-I7955, read-out: MIC) of 4 µg/mL (≈ 13.4 µM) and an MIC ([2]; Bacteroides fragilis, Bacteroides fragilis GAI10150, read-out: MIC) of 2 µg/mL (≈ 6.68 µM). The MIC ([2]; Bacteroides fragilis, Bacteroides fragilis GAI30079, read-out: MIC) was 256 µg/mL (≈ 855 µM), the MIC ([2]; Bacteroides fragilis, Bacteroides fragilis GAI30144, read-out: MIC) was 256 µg/mL (≈ 855 µM) and the MIC ([2]; Bacteroides fragilis, NCTC10581) was 0.125 µg/mL (≈ 0.418 µM). For the same compound, the MIC ([2]; Bacteroides ovatus, ATCC8483, Bacteroides ovatus ATCC8483, read-out: MIC) was 0.25 µg/mL (≈ 0.835 µM), the MIC ([2]; Bacteroides thetaiotaomicron, ATCC29741, Bacteroides thetaiotaomicron ATCC29741, read-out: MIC) was 0.5 µg/mL (≈ 1.67 µM) and the MIC ([2]; Bacteroides uniformis, ATCC8492, Bacteroides uniformis ATCC8492, read-out: MIC) was 0.5 µg/mL (≈ 1.67 µM). For the same compound, the MIC ([2]; Bilophilla wadsworthia WAL7959, read-out: MIC) was 0.25 µg/mL (≈ 0.835 µM), the MIC ([2]; Campylobacter gracilis, JCM8538, Campylobacter gracilis JCM8538, read-out: MIC) was 0.25 µg/mL (≈ 0.835 µM) and the MIC ([2]; Campylobacter ureolyticus, NCTC10941, Bacteroides ureolyticus NCTC10941, read-out: MIC) was 0.25 µg/mL (≈ 0.835 µM). It also gave an MIC ([2]; Capnocytophaga ochracea, Capnocytophaga ochracea GAI5586, read-out: MIC) of 0.25 µg/mL (≈ 0.835 µM), an MIC ([2]; Desullomonas pigra DSM749, read-out: MIC) of 0.06 µg/mL (≈ 0.2 µM) and an MIC ([2]; Fusobacterium necrophorum, ATCC25286) of 0.125 µg/mL (≈ 0.418 µM). The MIC ([2]; Fusobacterium nucleatum, ATCC25586, Fusobacterium nucleatum ATCC25586, read-out: MIC) was 1 µg/mL (≈ 3.34 µM), the MIC ([2]; Fusobacterium varium, ATCC8501, Fusobacterium varium ATCC8501, read-out: MIC) was 4 µg/mL (≈ 13.4 µM) and the MIC ([2]; Hoylesella oralis, ATCC33269, Prevotella oralis ATCC33269, read-out: MIC) was no more than 0.03 µg/mL. It also gave an MIC ([2]; Parabacteroides distasonis, ATCC8503, Bacteroides distasonis ATCC8503, read-out: MIC) of 1 µg/mL (≈ 3.34 µM), an MIC ([2]; Phocaeicola vulgatus, ATCC8482, Bacteroides vulgatus ATCC8482, read-out: MIC) of 1 µg/mL (≈ 3.34 µM) and an MIC ([2]; Porphylomonas gingivalis ATCC33277, read-out: MIC) of no more than 0.03 µg/mL. The MIC ([2]; Porphyromonas asaccharolytica, ATCC25260, Porphyromonas asaccharolytica ATCC25260, read-out: MIC) was no more than 0.03 µg/mL, the MIC ([2]; Prevotella bivia, ATCC29303, Prevotella bivia ATCC29303, read-out: MIC) was 0.06 µg/mL (≈ 0.2 µM) and the MIC ([2]; Prevotella buccaeATCC33574, read-out: MIC) was 0.25 µg/mL (≈ 0.835 µM). It also gave an MIC ([2]; Prevotella corporis, Prevotella corporis GAI91000, read-out: MIC) of no more than 0.03 µg/mL, an MIC ([2]; Prevotella heparinolytica, ATCC35895) of 0.125 µg/mL (≈ 0.418 µM) and an MIC ([2]; Prevotella melaninogenica, Prevotella melaninogenica GAI5490, read-out: MIC) of no more than 0.03 µg/mL. For the same compound, the MIC ([2]; Segatella oris, ATCC33573, Prevotella oris ATCC33573, read-out: MIC) was 0.06 µg/mL (≈ 0.2 µM), the MIC ([2]; Sutterella wadsworthensis, ATCC51579, Sutterella wadsworthensis ATCC51579, read-out: MIC) was 2 µg/mL (≈ 6.68 µM) and the MIC ([2]; Veillonella dispar, ATCC17748, Veillonella dispar ATCC17748, read-out: MIC) was 0.06 µg/mL (≈ 0.2 µM). For the same compound, the MIC ([2]; Veillonella parvula, ATCC10790) was 0.125 µg/mL (≈ 0.418 µM), the MIC50 [3] was 2 µg/mL (≈ 6.68 µM) and the MIC90 [3] was 32 µg/mL (≈ 107 µM). For the same compound, the MIC50 ([4]; Klebsiella pneumoniae) was 0.25 µg/mL (≈ 0.835 µM), the MIC90 ([4]; Klebsiella pneumoniae) was 1 µg/mL (≈ 3.34 µM) and the “MIC Range” value [4] was 0.125 to 4 µg/mL. For the same compound, the MIC50 ([5]; Proteus mirabilis) was 2 µg/mL (≈ 6.68 µM), the MIC90 ([5]; Proteus mirabilis) was 4 µg/mL (≈ 13.4 µM) and the “MIC Range” value [5] was 0.125 to 16 µg/mL. For the same compound, the MIC50 ([6]; Enterobacter, read-out: MIC50) was 1 µg/mL (≈ 3.34 µM), the MIC90 ([6]; Enterobacter, read-out: MIC90) was 2 µg/mL (≈ 6.68 µM) and the “MIC Range” value [6] was 0.25 to 64 µg/mL. For the same compound, the MIC50 ([7]; Acinetobacter) was 1 µg/mL (≈ 3.34 µM), the MIC90 ([7]; Acinetobacter) was 4 µg/mL (≈ 13.4 µM) and the “MIC Range” value [7] was 0.06 to 16 µg/mL.
